One block for each molecule: values may come before it. Peptide text beside a SMILES is read from it.
Experiments:
[1] = biological target: T1, cathepsin E (Rattus norvegicus, UniProt P16228); assay: Cathepsin E protease activity assay (fluorogenic substrate, neutral pH); format: biochemical; settings: 20 nM cathepsin E + 20 nM peptide; for Activity (%), value in parentheses: Table 2, value in parentheses
T1 construct: Cathepsin E was isolated from rat spleens as previously described; from tissue; host or cells: rat spleen
T1 sequence (P16228 59-398): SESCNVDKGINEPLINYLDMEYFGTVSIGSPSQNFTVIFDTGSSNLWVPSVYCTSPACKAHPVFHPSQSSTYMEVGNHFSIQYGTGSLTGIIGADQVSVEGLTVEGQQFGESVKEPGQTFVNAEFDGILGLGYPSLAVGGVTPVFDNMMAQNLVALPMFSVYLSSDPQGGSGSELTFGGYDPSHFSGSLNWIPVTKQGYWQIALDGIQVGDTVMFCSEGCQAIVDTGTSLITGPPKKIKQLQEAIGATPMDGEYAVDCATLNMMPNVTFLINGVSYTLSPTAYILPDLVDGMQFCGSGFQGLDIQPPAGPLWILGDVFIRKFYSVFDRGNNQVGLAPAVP
Protocol: (§1) Cathepsin E was isolated from rat spleens as previously described. The fluorogenic substrate for cathepsin E at neutral pH (pH 7.4) was the same as previously reported. The fluorogenic substrate (10 mM) was prepared by dissolving in 100% DMSO and diluting in reaction buffer immediately before use.
Activation of cathepsin E by the selected peptides was determined as previously described. The selected peptides were prepared by in vitro translation or chemical synthesis. A solution containing 20 nM cathepsin E was pre incubated with 20 nM of selected peptides in Selection buffer (50 mM Tris-HCl, 100 mM NaCl, pH 7.4) at 25°C for 10 min. Next, the fluorogenic substrate was added (5 μM) and the mixture was incubated at 37°C for 1 h for the enzyme reaction. The fluorescent reaction product was monitored at 440 nm (excitation at 340 nm) using Infinite 200 (TECAN, Japan). The percent of cathepsin E activation (A) was calculated by: (1) A = 100×(Sf−Bf)/(Cf−Bf) [% activation], where S f was the fluorescence intensity of the cathepsin E reaction in the presence of a selected peptide, C f was the fluorescence intensity of the control in the absence of a selected peptide, and B f was background fluorescence of the solution containing the fluorogenic substrate only.

[2] = biological target: T1, cathepsin E; assay: Affinity determination by SPR (Biacore2000); format: binding; settings: cathepsin E immobilized on CM5 chip, peptide 10-40 nM, running buffer pH 7.4, 1:1 Langmuir fit
Protocol: as §1
The dissociation constant (K d) of each selected peptide with cathepsin E was determined by the SPR method using a Biacore2000 (GE Healthcare, UK). Cathepsin E was immobilized on a CM5 Biacore sensor chip (GE Healthcare, UK) by the general amine coupling method. A small quantity of acetate buffer (50 mM sodium acetate, 100 mM NaCl, pH 4.5) containing cathepsin E (150 μg/mL) was injected into the flow cell for the sample lane. The reference lane was prepared similarly but without cathepsin E. Different concentrations (10, 20, 30, and 40 nM) of the selected peptide candidates, T4 and T11 were injected into both lanes at a flow rate of 20 ul/min to measure the interaction between cathepsin E and each peptide candidate. For all experiments, a neutral pH buffer (50 mM Tris-HCl, 100 mM NaCl, pH 7.4) was used as the running buffer and a solution of 50 mM NaOH was used to remove the peptides. The resulting sensorgram curves were fit to a 1 : 1 Langmuir binding model, and the K d values were calculated using BIA evaluation software (GE Healthcare, UK).

[3] = system: HeLa cells; assay: HeLa cell death assay (Cell Counting Kit-F viability, Annexin V-Cy3 apoptosis); format: cell-based
Protocol: HeLa cells were used for an in vitro cell-based bioassay. Approximately 10,000 HeLa cells were seeded into the wells of a 96-well culture plate (Corning, USA) containing 100 uL of DMEM medium supplemented with 10% FBS and 2% penicillin-streptomycin and incubated overnight at 37°C under 5% CO2. The cells were treated with cathepsin E (77 nM) alone or together with two different concentrations (770 nM, 7.7 μM) of the selected peptide T11 in 100 μL of serum-free Opti-MEM at 37°C for 20 h. After incubation, viable cells were determined with a Cell Counting Kit-F (Dojindo Molecular Technologies, Japan) according to the manufacturer's protocol. Viable cells were identified by their fluorescent emissions intensity using an Infinite 200 (TECAN, Japan) with excitation at 490 nm and emission at 515 nm. To detect apoptotic cells, cells were treated with Annexin V-Cy3 (BioVision, USA) following the manufacturer's protocol. Apoptotic cells were detected by their fluorescent emissions with excitation at 543 nm and emission at 570 nm. To detect caspase-3/7 activity induced by cathepsin E, an Apo-ONE Homogeneous Caspase-3/7 Assay kit (Promega, USA) was used according to the manufacturer's protocol. Activity was detected by fluorescent emissions with excitation at 485 nm and emission at 530 nm. […]

[4] = system: caspase-3/7 activity in HeLa cells; assay: Apo-ONE Homogeneous Caspase-3/7 assay in HeLa cells; format: cell-based; settings: for Caspase-3/7 activity: three independent experiments
Protocol: HeLa cells were used for an in vitro cell-based bioassay. Approximately 10,000 HeLa cells were seeded into the wells of a 96-well culture plate (Corning, USA) containing 100 uL of DMEM medium supplemented with 10% FBS and 2% penicillin-streptomycin and incubated overnight at 37°C under 5% CO2. […] After incubation, viable cells were determined with a Cell Counting Kit-F (Dojindo Molecular Technologies, Japan) according to the manufacturer's protocol. Viable cells were identified by their fluorescent emissions intensity using an Infinite 200 (TECAN, Japan) with excitation at 490 nm and emission at 515 nm. To detect apoptotic cells, cells were treated with Annexin V-Cy3 (BioVision, USA) following the manufacturer's protocol. Apoptotic cells were detected by their fluorescent emissions with excitation at 543 nm and emission at 570 nm. To detect caspase-3/7 activity induced by cathepsin E, an Apo-ONE Homogeneous Caspase-3/7 Assay kit (Promega, USA) was used according to the manufacturer's protocol. Activity was detected by fluorescent emissions with excitation at 485 nm and emission at 530 nm. The cathepsin E and selected peptide concentrations used for apoptosis and caspase assays were the same as those used for cell viability assays.

[5] = biological target: T2, peptide T4; assay: SPR
T2 chain: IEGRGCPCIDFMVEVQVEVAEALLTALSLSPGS

[6] = pH 7.4, 37°C 1 h, peptide by in vitro translation (italic) or chemical synthesis
[7] = Table 1, cathepsin E activity alone = 100%, pH 7.4, pre-incubation 25°C 10 min, 5 μM substrate, 37°C 1 h, peptide by in vitro translation (italics) or chemical synthesis
[8] = Table 2, value outside parentheses, pH 7.4, 37°C 1 h, peptide by in vitro translation (italic) or chemical synthesis

- Activity (%), value in parentheses [1, 6]: 122%
- Kd ([2]; read-out: dissociation constant (Kd) with cathepsin E): 2 nM
Molecule: CC[C@H](C)[C@H](N)C(=O)N[C@@H](CCC(=O)O)C(=O)NCC(=O)N[C@@H](CCCNC(=N)N)C(=O)NCC(=O)N[C@@H](CS)C(=O)N1CCC[C@H]1C(=O)N[C@@H](CS)C(=O)N[C@H](C(=O)N[C@@H](CC(=O)O)C(=O)N[C@@H](Cc1ccccc1)C(=O)N[C@@H](CCSC)C(=O)N[C@H](C(=O)N[C@@H](CCC(=O)O)C(=O)N[C@H](C(=O)N[C@@H](CCC(N)=O)C(=O)N[C@H](C(=O)N[C@@H](CCC(=O)O)C(=O)N[C@H](C(=O)N[C@@H](C)C(=O)N[C@@H](CCC(=O)O)C(=O)N[C@@H](C)C(=O)N[C@@H](CC(C)C)C(=O)N[C@@H](CC(C)C)C(=O)N[C@H](C(=O)N[C@@H](C)C(=O)N[C@@H](CC(C)C)C(=O)N[C@@H](CO)C(=O)N[C@@H](CC(C)C)C(=O)N[C@@H](CO)C(=O)N1CCC[C@H]1C(=O)NCC(=O)N[C@@H](CO)C(=O)O)[C@@H](C)O)C(C)C)C(C)C)C(C)C)C(C)C)[C@@H](C)CC [Peptide T4] (H-IEGRGCPCIDFMVEVQVEVAEALLTALSLSPGS-OH)

- Activity (%), value in parentheses [1, 6]: 138%
- dissociation constant (Kd) with cathepsin E [2]: too weak to be determined
Molecule: IEGRLLSGGAGACSVRTVDDSFDCG [Peptide T11, paired peptide selected from the third library; chemically synthesized, more than 95% purity]
- percentage of dying cells ([3]; 77 nM cathepsin E with T11 (770 nM, 7.7 μM) versus without T11, 20 h (Figures 3a, 3b)): significantly higher
- effect on cells ([3]; peptide alone (without cathepsin E)): no effect
- Caspase-3/7 activity ([4]; 77 nM cathepsin E + 7.7 μM peptide T11, 24 h): 188%
- Caspase-3/7 activation ([4]; T11 added without cathepsin E): not observed

- Activity (%) [1, 8]: 118%
Molecule: SDDKSTTLVEVQVEVAEELWRHYHYLLHG [Peptide T6, peptide selected from the paired peptide (third) library]

- Activity (%) [1, 8]: 111%
Molecule: SYKDSCIGGRGSGGGPGGIPGRIGYIG [Peptide T7, peptide selected from the paired peptide (third) library]

The remaining lines, values behind:

Molecule: GSPCIGII [Peptide S2]
- Activity (%) [1, 7]: 133%

Molecule: IEGRVGCDFMYVG [Peptide S1]
- Activity (%) [1, 7]: 130%

Molecule: IGCEERSFPNIIIIIG [Peptide S8]
- Activity (%) [1, 7]: 168%

Molecule: PGIKIIIIG [Peptide S4]
- Activity (%) [1, 7]: 151%

Molecule: PGIKPPPCIIIIG [Peptide S10]
- Activity (%) [1, 7]: 145%

Molecule: SGIKVGCDPPSCG [Peptide S9]
- Activity (%) [1, 7]: 140%

Molecule: SPIISHIVGCDPPSCG [Peptide S7]
- Activity (%) [1, 7]: 160%

B1: Cathepsin E (protein)
chain: SESCNVDKGINEPLINYLDMEYFGTVSIGSPSQNFTVIFDTGSSNLWVPSVYCTSPACKAHPVFHPSQSSTYMEVGNHFSIQYGTGSLTGIIGADQVSVEGLTVEGQQFGESVKEPGQTFVNAEFDGILGLGYPSLAVGGVTPVFDNMMAQNLVALPMFSVYLSSDPQGGSGSELTFGGYDPSHFSGSLNWIPVTKQGYWQIALDGIQVGDTVMFCSEGCQAIVDTGTSLITGPPKKIKQLQEAIGATPMDGEYAVDCATLNMMPNVTFLINGVSYTLSPTAYILPDLVDGMQFCGSGFQGLDIQPPAGPLWILGDVFIRKFYSVFDRGNNQVGLAPAVP
- Caspase-3/7 activity ([4]; 77 nM cathepsin E alone, 24 h): 155%
- Kd [5]: 2 nM

Reference: paper PMC3534310, “Peptide-Modulated Activity Enhancement of Acidic Protease Cathepsin E at Neutral pH” (International Journal of Peptides, 2012)
